Results taken from patent publication US10857185B2, “Compositions and methods for reprogramming non-neuronal cells into neuron-like cells” (Beihao Stem Cell and Regenerative Medicine Research …, priority 2015, dated 2020).
Entries after “also recorded” stand apart in the source; their conditions may differ.

Legend:
[1] = test system: CiNs; experiment: Whole-cell patch-clamp recordings of CiNs; format: cell-based, mouse; details: CiNs after re-plating; data not shown
Protocol: Primary cultures of neurons were prepared from postnatal day 1 wild-type C57 mice. Mice were decapitated, and their brains were removed in pre-cooled physiological saline. The hippocampus was dissected in pre-cooled HBSS (9.5 g/L Hanks' balanced salts, 4.2 mM NaHCO3, 10 mM HEPES, 12 mM MgSO4, 7 g/L glucose, 0.3 g/L bull serum albumin, and 0.5% penicillin/streptomycin, with the pH adjusted to 7.4 with NaOH). Tissues were digested with 5 ml 0.2% trypsin (Gibco, dissolved in digestion solution) for 2-3 min, and the digestion reaction was stopped with 1 mg/ml trypsin inhibitor (Sigma, dissolved in HBSS). The digestion solution contained (in mM) 4.2 NaHCO3, 25 HEPES, 137 NaCl, 5 KCl, and 7 Na2HPO4, and the pH was adjusted to 7.4 with NaOH. […]
For whole-cell patch-clamp recordings, the ACSF (artificial cerebrospinal fluid) extracellular solution contained (in mM) 141 NaCl, 2.5 KCl, 1.3 MgCl2, 2.4 CaCl2, 1.25 NaH2PO4 10 glucose and 10 HEPES (pH adjusted to 7.4 with NaOH), and the internal pipette solution contained (in mM) 140 potassium gluconate, 1 CaCl2, 10 EGTA, 2 MgCl2, 10 HEPES, and 5 Na2ATP (pH adjusted to 7.3 with KOH). […] Tetrodotoxin (TTX; 10 μM) dissolved in extracellular solution was applied with an ALA-VM4 valve manifold (Scientific Instruments), and washout from the iNs was assessed to determine whether the inward fast inactivating current was a sodium current. […]

[2] = test system: fibroblasts; experiment: Gene expression (RT-qPCR) after removing each small molecule from the cocktail; format: cell-based, mouse
Protocol: Total RNA was extracted using the Qiagen RNeasy Plus mini kit and was reverse transcribed into cDNA with TransScript One-step gDNA Removal and cDNA Synthesis SuperMix (TransGen Biotech). Real-time PCR was performed using a 7300 Real-Time PCR system (Applied Biosystems) with Power SYBR Green PCR Master Mix (2×).
Gene expression was analyzed using the ΔΔCt method. All the results were normalized to β-actin expression, and the values of uninduced fibroblasts were set to 1. Two replicates were used to determine the error bars.
Next, the roles of the small molecules in regulating these endogenous cell-fate-determining factors were determined.

[3] = test system: mouse fibroblasts; experiment: Transgene-free chemical induction of mouse fibroblasts into neuron-like cells (immunostaining counts); format: cell-based
Protocol: Secondary screening was performed to identify additional small molecules that facilitate neuronal reprogramming and maturation (shown schematically in FIG. 2A). In this screening, the effect of the additional small molecules was evaluated by observing neurite outgrowth. Desirable additional small molecules could induce the neurons with an improved neurite outgrowth as signs of enhanced reprogramming and maturation, ideally with highly complex morphologies. Improved neurite morphologies were evaluated in terms of enhanced neurite branches and neurite length. Further, characterization (e.g. TUJ1 immunostaining) was performed to confirm the observation. Fibroblasts were seeded into 12-well plates and each additional small molecule was added well by well into the culture medium containing the basic small-molecule cocktail (SM-cocktail+1 Screening), while SM-cocktail+DMSO was used as a negative control. […] TUJ1-positive cells with circular cell bodies and neurite outgrowth that is at least three-fold longer than the cell body were quantified. […] Cells were washed with PBS twice and then fixed with 4% paraformaldehyde for 20 min at room temperature. Afterward, the cells were washed with PBS twice and then blocked and permeabilized with 0.25% PBST (PBS plus 0.25% Triton X-100) and 3% donkey serum (DS) for 1 hour at 37° C. A PAP pen was used to outline the fields for staining. Diluted primary antibodies were added to the outlined fields, and the samples were incubated at 4° C. overnight. Next, the cells were washed three times with PBS and incubated in PBS plus 3% DS with diluted secondary antibodies for 1 hour at room temperature. The nuclei of the cells were stained with DAPI (Roche Molecular Biochemicals) if needed. […] The following secondary antibodies were used in this study: FITC and TRITC-conjugated secondary antibodies (Jackson ImmunoResearch) and Alexa Fluor 647-conjugated secondary antibodies (Life Technologies).

[4] = I-BET151 added to FICS cocktail (FICS+1 screening)

NC(CCCP(=O)(O)O)C(=O)O (stereo not shown) [AP5, 2-amino-5-phosphonovaleric acid]
effect of receptor antagonists on EPSCs of CiNs [1]: blocked

N#Cc1cc2c(cc1[N+](=O)[O-])=NC(=O)C(=O)N=2 [CNQX, 6-cyano-7-nitroquinoxaline-2,3-dione]
effect of receptor antagonists on EPSCs of CiNs [1]: blocked

COc1cc2c(cc1-c1c(C)noc1C)ncc1[nH]c(=O)n([C@H](C)c3ccccn3)c12 [I-BET151, 7-(3,5-dimethylisoxazol-4-yl)-8-methoxy-1-((R)-1-(pyridin-2-yl)ethyl)-1H-imidazo[4,5-c]quinolin-2(3H)-one]
role in suppression of the endogenous fibroblast-fate-determining program [2]: core small molecule to suppress the endogenous fibroblast-fate-determining program | TUJ1-positive cells yield [3, 4]: 90% | reprogramming rate and neurite outgrowth of the induced neurons [3, 4]: dramatically enhanced | toxicity to cells being induced ([3]; enhancing reprogramming with I-BET151): some toxicity

O=C(NC1CC1)c1cc(-c2cccs2)on1 [ISX9, N-cyclopropyl-5-(2-thienyl)-3-isoxazolecarboxamide]
role in activation of master neural / neuron-specific genes ([2]; 48 h): necessary for activation of multiple neuron-specific genes; also recorded: essential to induce the master neural genes

NC(=O)c1ccc(-c2nc(-c3ccc4c(c3)OCO4)c(-c3ccccn3)[nH]2)cc1 [SB431542, 4-[4-(1,3-benzodioxol-5-yl)-5-(2-pyridinyl)-1H-imidazol-2-yl]benzamide]
survival and neurite outgrowth of the induced neurons ([3]; in FICSB cocktail): enhanced | need of the chemical for generating neurons ([3]; withdrawing individual chemical from FICSB cocktail): dispensable for generating neurons

C[C@@H](N)[C@H]1CC[C@H](C(=O)Nc2ccncc2)CC1.Cl.Cl [Y2632, (+)-(R)-trans-4-(1-aminoethyl)-N-(4-pyridyl)cyclohexanecarboxamide dihydrochloride]
survival rate and reprogramming ([3]; treatment from Day 0 to about day 4 together with I-BET151-containing cocktail): enhanced the survival rate and reprogramming
